Reference: ChEMBL document CHEMBL3507680, “University of Dundee, Gates Library screen for HepG2 cell viability”

experiment: Human HepG2 cell viability assay in 384 well format; type: toxicity, cell-based; design: dose 125 nL, time 70.5 hour; cytotoxicity at 70.5 h: concentration not given beside the values; conditions: HepG2 cells, read-out: Inhibition

Compound | cytotoxicity at 70.5 h [%]
CNc1ncc(CN(C)C(=O)c2c[nH]nc2-c2cccc(F)c2)cn1 | -6.7
NCc1cccc(-c2cccnc2C(=O)NCCN2CCCC2)c1 | -8.26
O=C(Cn1nc2ccccc2n1)N1CCCC(O)(CO)C1 (stereo not drawn) | 6.64
COc1cc(C)sc1C(=O)NCCNc1ccccc1 | 11.2
Cc1nn(C)cc1S(=O)(=O)NCC(C)Cn1cc(Cl)cn1 (stereo not drawn) | 3.54
O=C(CCc1cccs1)N1CCCCC1Cn1cccn1 (stereo not drawn) | -5.08
COCC(=O)N1C[C@@H](C)[C@](O)(C(C)C)C1 | -3.63
CC(CCN1CCn2nc(CNC(=O)N(C)C)cc2C1)c1ccccc1 (stereo not drawn) | -6.81
Cc1ccc(CN(C)C(=O)CN2CCCC2c2cnn(C)c2)cc1 (stereo not drawn) | -6.75
Cc1oc(-c2cccc(F)c2F)nc1CN(C)CCO | -7.35
CCOc1ccccc1-c1noc(CN2CCN(CCOC)CC2)n1 | -6.13
O=C(NCc1cccnc1N1CCc2ccccc2C1)c1cc(=O)[nH][nH]1 | -3.06
CN1CCC(NC(=O)Nc2cnn(-c3ccccc3Cl)c2)C1=O (stereo not drawn) | -7.73
CC1COCCN1Cc1nc(-c2ccc(Br)s2)no1 (stereo not drawn) | 1.52
CN1CCCN(CCCNC2CCc3cc4c(cc32)OCCO4)CC1 (stereo not drawn) | 8.36
O=C(O)C1CN(c2cccc(Cl)c2)CCO1 (stereo not drawn) | -4.2
CCc1ncc(CN2CCCN(CC3CC3)C(C(C)C)C2)cn1 (stereo not drawn) | 9.86
Cc1cc(=O)c(C(=O)N2CCC(C(O)Cc3ccccc3)CC2)c(C)[nH]1 (stereo not drawn) | -14.4
c1ccc2nc(CN3CCCC3c3noc(C4CC4)n3)ccc2c1 (stereo not drawn) | 21.2
Cc1c[nH]c(CN(C)C(=O)CCn2cnc3ccccc32)n1 | -1.23
CCOCc1ncn2c1CN(S(=O)(=O)c1ccc(C)cc1)CC2 | 35.9
COc1cc(C)nc(N2CCN(C(=O)COC3CCCC3)CC2)n1 | -4.07
Cc1nc2c(c(C)c1CC(=O)NC(C)c1ccccc1)c(=O)[nH]n2C (stereo not drawn) | -2.23

Compound | cytotoxicity at 70.5 h [%]
COc1cc(C(=O)NC(CC(=O)O)c2cccs2)cc(Cl)c1OC (stereo not drawn) | -8.1
CCNC(=O)[C@@H]1C[C@@H](NC(=O)c2cnc[nH]c2=O)CN1Cc1ccsc1 | -2.36
CC(C)C(C)(C#N)NC(=O)Cn1cc(Cl)cn1 (stereo not drawn) | -6.35
CCN1CCN(c2ncc3c(=O)n(Cc4ccco4)ccc3n2)CC1 | -5.38
O=C(CCC1CCCC1)N1C[C@H]2CC[C@@H]1CN(Cc1ccncc1)C2 | -11.9
COCCN(C)Cc1nc(-c2cccc(F)c2F)oc1C | -11.3
CC(C(N)=O)N(C)CCCc1cc(-c2ccccc2)no1 (stereo not drawn) | -2.88
CCNC(=O)Nc1ccc(N2CCC(OC)CC2)c(C(F)(F)F)c1 | -1.82
O=C(NCCNS(=O)(=O)c1cc(F)cc(F)c1)c1ccoc1 | -8.89
CCC(C)(C)NC(=O)Cn1cc(C(N)=O)c(-c2ccccc2)n1 | -7.28
CCC(O)CN1CCN(C(=O)c2ccc(Cn3cccc3)cc2)CC1 (stereo not drawn) | -11.6
CC(C)C(=O)Nc1ncn(Cc2cccc(Br)c2)n1 | -9.36
CN(CC(=O)NCCC#N)C(c1ccccc1)c1ccc(F)cc1 (stereo not drawn) | -15.7
CCc1cnc(NCCS(=O)(=O)CC(C)C)nc1 | 19.7
CN1CCC(N2CC[C@@H]3[C@@H](CCC(=O)N3CCC3=CCCCC3)C2)CC1 | -1.35
Cc1noc(C2(C)CCCN(C(=O)c3cccnc3)C2)n1 (stereo not drawn) | 11.1
NCCC(=O)N1CCC2(CC1)CN(C(=O)Cc1cccc(Cl)c1)CCO2 | -15.5
CC1(C)[C@H](Cc2cc(CN3CCCCC3)on2)C[C@@H]1NC(=O)C1CC1 | 10.2
CN(C)C(=O)NCc1cc2n(n1)CCCN(C[C@H]1[C@@H]3CNC[C@@H]31)C2 | -0.846
CC(SCCC(=O)NC(N)=O)c1ccccc1F (stereo not drawn) | -7.35
COc1ccc(Cl)cc1-c1nc(N)nc(N)n1 | 26
Cn1ccnc1CN1CCCCC1c1nc(-c2ccccc2)no1 (stereo not drawn) | -10.6
Oc1ccc(Cl)cc1CNCc1ccccc1Cl | -8.63

Compound | cytotoxicity at 70.5 h [%]
CNC(=O)COC(=O)c1ccoc1CN1c2ccccc2CC1C (stereo not drawn) | 0.373
CN(c1ncnc2c1cnn2C)C1CCCN(c2cccnn2)C1 (stereo not drawn) | 0.765
CC(=O)N1CCC2(CCN(C(=O)c3ccc(Cl)c(C(F)(F)F)c3)CC2)C1 | 1.62
CC(C)CNC(=O)c1ccc(NC(=O)NC2CC2)cc1Cl | -12.8
CN(C)c1ccc(NC(=O)CN2CCS(=O)(=O)CC2)cn1 | -0.4
COCCN(CCC#N)Cn1cc(Cl)cn1 | -2.01
CNc1nc(CNC(=O)Nc2cccc(OC)c2)cs1 | -0.727
Cc1cnn(CC2CCCCN2Cc2nc(C)c3ccccc3n2)c1 (stereo not drawn) | -1.81
Cc1c(CN2CC[C@@H](N3CCC(O)CC3)[C@H](O)C2)[nH]c2ccc(F)cc12 | -2.56
O=C(CCNc1ncccn1)NCCc1ccc(Cl)s1 | -3.42
Cc1ccn(-c2ccc(NCc3cccnc3N3CCCCC3)nn2)n1 | 12.6
CC1CCN(S(=O)(=O)c2cccn(CC(=O)NC3CCCC3)c2=O)CC1 | -3.39
COc1ccccc1CNC(=O)N1CCCC(c2nncn2C)C1 (stereo not drawn) | -2.85
CCNC(c1cccnc1)c1ccc(F)c(C)c1 (stereo not drawn) | 1.17
O=C1CCCc2occ(C(=O)N3CCCC4(CCNC4)C3)c21 (stereo not drawn) | -7.04
Cc1ocnc1C(=O)N1CCN(C(=O)CC(C)C)[C@@H]2CS(=O)(=O)C[C@@H]21 | 31.4
CCN(CCNC(=O)c1cccnc1OCCOC)C1CC1 | 0.553
Fc1ccc2[nH]c3c(c2c1)CCN1C(c2ccncc2)N2CCC31CC2 (stereo not drawn) | 22.4
CCSc1nc(N)c(NC(=O)c2ccc(OC)c(OC)c2)c(=O)[nH]1 | 11.2
CC(C)Cn1cncc1CNC(=O)c1cccc(CC2CCNCC2)c1 | 8.07
CCN(C(=O)CCCOc1ccccc1F)c1ccncc1 | 1.58
c1cnn(Cc2ccc(CN3CCC4(CCCNC4)C3)cc2)c1 (stereo not drawn) | 21.4
Cc1cc(C)c(CNC(=O)C(C)Oc2cccc(C#N)c2)c(=O)[nH]1 (stereo not drawn) | -11.6

Compound | cytotoxicity at 70.5 h [%]
O=C(NCCOc1ccc(Cl)cn1)Nc1nccs1 | 11
COc1ccc(OC)c(NC(=O)c2nc3ccccc3n(C)c2=O)c1 | -7.65
COc1ccccc1CN1CCC(Cc2cnc(CN(C)C)cn2)CC1 | -2.82
CNc1oc(-c2ccc(S(=O)(=O)N(C)C)o2)nc1C#N | 22.7
CCn1nc2c(cc1=O)CN(CC(=O)N(C)c1nccs1)CC2 | 25.4
CC(=O)N1CCN(Cc2ccc(C(F)(F)F)cc2F)CC(O)C1 (stereo not drawn) | -10.5
COCc1cncc2c1CCN(Cc1cnn(C)c1)C2 | 10.6
O=c1n(CCn2cccc2)nc(C2CCNCC2)n1Cc1ccccc1 | -3.92
CC(C)(N)C(=O)N1CCCC1c1cncc(Oc2ccc(F)cc2)n1 (stereo not drawn) | 0.148
CCNC(=O)c1sccc1N(C)S(=O)(=O)c1ccc(Cl)cc1 | 1.21
CC(C)n1nc2c(cc1=O)CN(Cc1nc(-c3ccoc3)no1)CC2 | 17
CN(C)S(=O)(=O)CCCN1CCc2c(ncn2C2CC2)C1 | 9.65
O=C1CC(N(C(=O)c2ccc(F)c(F)c2)C2CC2)C(=O)N1 (stereo not drawn) | -9.51
Cc1noc(C2CCN(C(=O)c3ccc(N(C)C)nc3)CC2)n1 | -29.1
CC(NC(=O)N1CCC2(C1)OCCO2)c1ccc(F)cc1Cl (stereo not drawn) | 4.97
COc1ccc(CN2CCO[C@H]3[C@H](OCCN4CCCC4)CC[C@@H]32)cc1 | -9.88
CN1C[C@H](O)[C@]2(CCN(Cc3ccc(F)c(F)c3)C2)S1(=O)=O | 13.9
O=C(CCOc1ccc(Cl)cc1)N1CCN(c2cnccn2)CC1 | -11.5
CC(C)CN(Cc1ccccn1)Cc1ccccc1OCC(=O)O | -9.42
O=C(NS(=O)(=O)c1cc(Cl)sc1Cl)c1cccc2c1OCCO2 | 1.61
CS(=O)(=O)c1ccc2c(c1)N(C(=O)c1cccc(F)c1)CCC2 | -4.57
CC(C)[C@H](N)c1nnc(SCC(=O)Nc2ccc(Br)cc2)o1 | -4.97
CN(Cc1ccco1)C1CCC12CCN(C(=O)c1ccco1)CC2 (stereo not drawn) | -0.239

Compound | cytotoxicity at 70.5 h [%]
OCCNc1nc(NCCc2ccccc2)nc2nccnc12 | -1.57
CCOCCC(=O)N1CCCN(c2ccccc2C)CC1 | -4.5
CS(=O)(=O)CCC(=O)N1C[C@@H]2CC[C@H](C1)N(Cc1ccccc1)C2=O | -8.53
COc1ccc(C2CCCN2C(=O)NCCn2ccnc2)cc1 (stereo not drawn) | 1.98
CN(Cc1cccc(F)c1)C(=O)c1cc2c([nH]c1=O)CCCC2=O | 2.65
Cc1nn(C)c(N(C)C)c1CNCC(O)c1ccccc1F (stereo not drawn) | -15.4
CS(=O)(=O)NC[C@H]1OC[C@@H]2CCN(C(=O)c3cccnc3)C[C@@H]21 | -0.643
O=C(NC1CCCCC1)c1nnc2ccc(N3CCOCC3)cc2n1 | -8.08
Cc1cccc(OCCNC(=O)C(C)S(=O)(=O)C2CCCC2)c1 (stereo not drawn) | -9.37
CCN1CC2(CC1=O)CN(Cc1ccccn1)CCN(C(C)=O)C2 (stereo not drawn) | -10.2
Cc1ccccc1C(CNC(=O)CSc1nnc(N)s1)N(C)C (stereo not drawn) | -6.4
CCS(=O)(=O)N1CCC2(CC1)CC(CC(=O)NC1CC1)c1ccccc12 (stereo not drawn) | 17.6
CNC(=O)C1CCN(c2cc(C3CCNCC3)nc(C)n2)C1 (stereo not drawn) | -19.2
CCN(C)S(=O)(=O)NCC(C)(O)c1ccsc1 (stereo not drawn) | -0.398
Oc1cc(C2CCNCC2)nc(-c2ccsc2)n1 | -4.35
Fc1cccc(-c2nnn3c2COC(CNCc2nccs2)C3)c1 (stereo not drawn) | 14.6
CCC(CC)C(=O)c1c[nH]c(C(=O)N2CCN(c3ccccc3)CC2)c1 | -3.31
Cc1cnc2c(c1NCc1ccncc1)c(=O)n(C)c(=O)n2C | -2.95
COc1cccc(OCCn2c(C)c(C)oc2=O)c1 | 0.585
CCOc1ccc(C(F)(F)F)cc1NCc1cc(C)on1 | 26.7
CC(C)c1nc(C2CCCN(C(=O)CCCn3cccn3)C2)no1 (stereo not drawn) | -4.14
